Data from US20250171423A1, “PHARMACEUTICAL COMPOUNDS FOR THE TREATMENT OF COMPLEMENT MEDIATED DISORDERS” (Achillion Pharmaceuticals, Inc., priority 2020, published 2025).

Molecular target: T1, Human complement C1s enzyme (Homo sapiens, UniProt P09871)
T1 construct: purified from human serum, Complement Technology, Inc; purchased Complement Technology, Inc; host or cells: human serum
T1 sequence (P09871 438-688 limits assumed): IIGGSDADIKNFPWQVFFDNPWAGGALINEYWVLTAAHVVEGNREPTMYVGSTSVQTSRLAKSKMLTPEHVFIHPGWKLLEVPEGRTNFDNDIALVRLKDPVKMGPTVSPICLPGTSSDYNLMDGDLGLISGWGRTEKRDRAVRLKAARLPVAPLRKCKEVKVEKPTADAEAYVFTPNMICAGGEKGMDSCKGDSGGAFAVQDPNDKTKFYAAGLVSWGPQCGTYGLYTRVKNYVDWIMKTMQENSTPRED
T1 sequence (P09871 16-437 partner limits assumed): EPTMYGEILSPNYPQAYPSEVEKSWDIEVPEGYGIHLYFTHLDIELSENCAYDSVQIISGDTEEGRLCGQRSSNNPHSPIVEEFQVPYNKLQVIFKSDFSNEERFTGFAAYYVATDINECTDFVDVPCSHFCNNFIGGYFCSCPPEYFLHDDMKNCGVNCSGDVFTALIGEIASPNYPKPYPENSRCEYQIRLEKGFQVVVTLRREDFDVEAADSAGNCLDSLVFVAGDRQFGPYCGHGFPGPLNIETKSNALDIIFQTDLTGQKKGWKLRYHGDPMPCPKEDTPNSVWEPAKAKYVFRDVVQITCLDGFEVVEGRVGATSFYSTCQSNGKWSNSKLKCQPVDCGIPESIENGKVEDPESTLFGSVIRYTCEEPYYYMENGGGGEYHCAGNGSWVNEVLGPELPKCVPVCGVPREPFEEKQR
Assay: Human C1s Enzyme Assay
Type: biochemical
Settings: human C1s 1.16 nM, 5 min preincubation, substrate Z-L-Lys-SBzl 100 μM, A405; read-out: C1s Protease Activity
Method in brief: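 IC50 values were fitted by nonlinear regression to rates measured as A405 every 30 s for 30 min. The thioester substrate Z-L-Lys-SBzl and Ellman's reagent were each at 100 μM. Serum-derived C1s at 1.16 nM final had 5 min of room-temperature preincubation with compound (pH 7.5 Tris buffer, 1 M NaCl).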

Row | IC50 [nM] | SMILES
1 | < 100 | C[C@@H](NC(=O)[C@@H]1C[C@]2(COCC(=O)O)C[C@@H]2N1C(=O)CNC(=O)CCCOc1ccccc1)c1cc(C(=N)N)cs1 [Compound 148, 2-(((1S,3S,5R)-3-(((R)-1-(4-carbamimidoylthiophen-2-yl)ethyl)carbamoyl)-2-((4-phenoxybutanoyl)glycyl)-2-azabicyclo[3.1.0]hexan-5-yl)methoxy)acetic acid]
2 | < 100 | C[C@@H](Oc1ccc(C(=O)NCC(=O)N2[C@H]3C[C@@]3(C)C[C@H]2C(=O)NCc2cc(C(=N)N)cs2)cc1)c1ccccc1 [Compound 223, (1S,3S,5S)-N-((4-carbamimidoylthiophen-2-yl)methyl)-5-methyl-2-((4-((R)-1-phenylethoxy)benzoyl)glycyl)-2-azabicyclo[3.1.0]hexane-3-carboxamide]
3 | < 100 | C[C@@H](NC(=O)[C@@H]1C[C@@]23COCCC/C=C/CCCCCCCCC(=O)N[C@@H](CCOc4ccccc4)C(=O)NCC(=O)N1[C@H]2C3)c1cc(C(=N)N)cs1 [Compound 250, (1R,19S,25S,28S,E)-N-((R)-1-(4-carbamimidoylthiophen-2-yl)ethyl)-17,20,23-trioxo-19-(2-phenoxyethyl)-3-oxa-18,21,24-triazatricyclo[22.2.2.0^1,25]octacos-7-ene-28-carboxamide]
4 | < 100 | C[C@@H](NC(=O)[C@@H]1C[C@](F)(CF)CN1C(=O)CNC(=O)c1ccc(Oc2ccccc2)cc1)c1cc(C(=N)N)cs1 [Compound 187, (2S,4R)-N-((R)-1-(4-carbamimidoylthiophen-2-yl)ethyl)-4-fluoro-4-(fluoromethyl)-1-((4-phenoxybenzoyl)glycyl)pyrrolidine-2-carboxamide]
5 | < 100 | C[C@@]12C[C@@H]1N(C(=O)CNC(=O)c1ccc(Oc3cccnc3)cn1)[C@H](C(=O)NCc1cc(C(=N)N)cs1)C2 [Compound 162, (1S,3S,5S)-N-((4-carbamimidoylthiophen-2-yl)methyl)-5-methyl-2-((5-(pyridin-3-yloxy)picolinoyl)glycyl)-2-azabicyclo[3.1.0]hexane-3-carboxamide]
6 | < 100 | CC(C)(C)c1ccc(OCCCC(=O)NCC(=O)N2[C@H]3C[C@@]3(C)C[C@H]2C(=O)NCc2cc(C(=N)N)cs2)cc1 [Compound 87, (1S,3S,5S)-2-((4-(4-(tert-butyl)phenoxy)butanoyl)glycyl)-N-((4-carbamimidoyl-thiophen-2-yl)methyl)-5-methyl-2-azabicyclo[3.1.0]hexane-3-carboxamide]
7 | > 1000 | COc1ccc(CNC(=O)[C@@H]2C[C@]3(C)C[C@@H]3N2C(=O)CNC(=O)c2ccc(Oc3ccccc3)cc2)cc1 [Compound 43, (1S,3S,5S)-N-(4-methoxybenzyl)-5-methyl-2-((4-phenoxy-benzoyl)-glycyl)-2-azabicyclo[3.1.0]hexane-3-carboxamide]
8 | < 100 | C[C@@]12C[C@@H]1N(C(=O)CNC(=O)CCCOc1ccc(S(F)(F)(F)(F)F)cc1)[C@H](C(=O)NCc1cc(C(=N)N)cs1)C2 [Compound 96, (1S,3S,5S)-N-((4-carbamimidoylthiophen-2-yl)methyl)-5-methyl-2-((4-(4-(pentafluoro-λ^6-sulfanyl)phenoxy)butanoyl)glycyl)-2-azabicyclo[3.1.0]hexane-3-carboxamide]
9 | > 1000 | C[C@@]12C[C@@H]1N(C(=O)CNC(=O)c1ccc(Oc3ccccc3)cc1)[C@H](C(=O)NS(=O)(=O)c1cc(C(=N)N)cs1)C2 [Compound 86, (1S,3S,5S)-N-((4-carbamimidoylthiophen-2-yl)sulfonyl)-5-methyl-2-((4-phenoxy-benzoyl)glycyl)-2-azabicyclo[3.1.0]hexane-3-carboxamide]
10 | < 100 | N=C(N)c1csc(CNC(=O)[C@@H]2C[C@](F)(CO)CN2C(=O)CNC(=O)CCCOc2ccccc2)c1 [Compound 66, (2S,4R)-N-((4-carbamimidoylthiophen-2-yl)methyl)-4-fluoro-4-(hydroxymethyl)-1-((4-phenoxybutanoyl)glycyl)pyrrolidine-2-carboxamide]
11 | < 100 | C[C@@]12C[C@@H]1N(C(=O)CN1CCc3cc(Oc4ccccc4)ccc3C1=O)[C@H](C(=O)NCc1cc(C(=N)N)cs1)C2 [Compound 161, (1S,3S,5S)-N-((4-carbamimidoylthiophen-2-yl)methyl)-5-methyl-2-(2-(1-oxo-6-phenoxy-3,4-dihydroisoquinolin-2(1H)-yl)acetyl)-2-azabicyclo[3.1.0]hexane-3-carboxamide]
12 | > 1000 | CC(C)C[C@H](NC(=O)[C@@H]1CC2(CN1C(=O)CNC(=O)CCCOc1ccccc1)OCCO2)c1cc(C(=N)N)cs1 [Compound 221, (S)-N-((S)-1-(4-carbamimidoylthiophen-2-yl)-3-methylbutyl)-7-((4-phenoxybutanoyl)glycyl)-1,4-dioxa-7-azaspiro[4.4]nonane-8-carboxamide]
13 | < 100 | C[C@@H](NC(=O)[C@@H]1C[C@@H](OC(F)F)CN1C(=O)CNC(=O)c1ccc(Oc2ccccc2)cc1)c1cc(C(=N)N)cs1 [Compound 172, (2S,4R)-N-((R)-1-(4-carbamimidoylthiophen-2-yl)ethyl)-4-(difluoromethoxy)-1-((4-phenoxybenzoyl)glycyl)pyrrolidine-2-carboxamide]
14 | > 1000 | C[C@@]12C[C@@H]1N(C(=O)CNC(=O)c1ccc(Oc3ccccc3)cc1)[C@H](C(=O)N(O)Cc1cc(C(=N)N)cs1)C2 [Compound 127, (1S,3S,5S)-N-((4-carbamimidoylthiophen-2-yl)methyl)-N-hydroxy-5-methyl-2-((4-phenoxybenzoyl)glycyl)-2-azabicyclo[3.1.0]hexane-3-carboxamide]
15 | < 100 | N=C(N)c1csc(CNC(=O)[C@@H]2C[C@H](C3CCCCC3)CN2C(=O)CNC(=O)CCCOc2ccccc2)c1 [Compound 242, (2S,4R)-N-((4-carbamimidoylthiophen-2-yl)methyl)-4-cyclohexyl-1-((4-phenoxybutanoyl)glycyl)pyrrolidine-2-carboxamide]
16 | < 100 | N=C(N)c1csc(CNC(=O)[C@@H]2CC(O)(C(F)(F)F)CN2C(=O)CNC(=O)CCCOc2ccccc2)c1 (stereo partly drawn) [Compound 62, (2S)-N-((4-carbamimidoylthiophen-2-yl)methyl)-4-hydroxy-1-((4-phenoxybutanoyl)-glycyl)-4-(trifluoromethyl)pyrrolidine-2-carboxamide]
17 | < 100 | C[C@@]12C[C@@H]1N(C(=O)CNC(=O)CCCOc1ccccc1)[C@H](C(=O)NCc1cc(C(=N)N)c(F)s1)C2 [Compound 245, (1S,3S,5S)-N-((4-carbamimidoyl-5-fluorothiophen-2-yl)methyl)-5-methyl-2-((4-phenoxybutanoyl)glycyl)-2-azabicyclo[3.1.0]hexane-3-carboxamide]
18 | > 1000 | N=C(N)c1csc([C@H](NC(=O)[C@@H]2C[C@@H](OC(F)F)CN2C(=O)CNC(=O)c2ccc(Oc3ccccc3)cc2)C(N)=O)c1 (single isomer, unassigned) [Compound 215]
19 | < 100 | Cc1ccccc1[C@H]1C[C@@H](C(=O)N[C@H](C)c2cc(C(=N)N)cs2)N(C(=O)CNC(=O)c2ccc(Oc3ccccc3)cc2)C1 [Compound 238, (2S,4R)-N-((R)-1-(4-carbamimidoylthiophen-2-yl)ethyl)-1-((4-phenoxybenzoyl)glycyl)-4-(o-tolyl)pyrrolidine-2-carboxamide]
20 | < 100 | CO[C@@H]1C[C@@H](C(=O)N[C@H](C)c2cc(C(=N)N)cs2)N(C(=O)CNC(=O)CCCOc2ccccc2)C1 [Compound 106, (2S,4R)-N-((R)-1-(4-carbamimidoylthiophen-2-yl)ethyl)-4-methoxy-1-((4-phenoxy-butanoyl)glycyl)pyrrolidine-2-carboxamide]
21 | < 100 | Cc1ccccc1[C@@H]1C[C@@H](C(=O)NCc2cc(C(=N)N)cs2)N(C(=O)CNC(=O)CCCOc2ccccc2)C1 [Compound 155, (2S,4S)-N-((4-carbamimidoylthiophen-2-yl)methyl)-1-((4-phenoxybutanoyl)glycyl)-4-(o-tolyl)pyrrolidine-2-carboxamide]

Test system: not given
Assay: not given
Settings: from C=CCCCCC/C=C\c1cc(C(=O)NCC(=O)N2[C@H]3C[C@@]3(COCCCC=C)C[C@H]2C(=O)OCc2ccccc2)ccc1Oc1ccc(F)cc1; rcm bond; Grubbs 1st generation catalyst; DCM; 1.76 mM; 25.0 °C; 48.0 h

Row | SMILES | ring closure, yield of all isomers [%]
22 | O=C1NCC(=O)N2[C@H]3C[C@@]3(COCCCC=CCCCCC/C=C\c3cc1ccc3Oc1ccc(F)cc1)C[C@H]2C(=O)OCc1ccccc1 | 7.8

Same assay, conditions: from C=CCCCCCCCCC(=O)N[C@@H](CCOc1ccccc1)C(=O)NCC(=O)N1[C@H]2C[C@@]2(COCCCC=C)C[C@H]1C(=O)OCC; rcm bond; Grubbs 1st catalyst; DCM; 15.3 mM; 28.0 °C; 16.0 h

Row | SMILES | ring closure, yield of all isomers [%]
23 | CCOC(=O)[C@@H]1C[C@@]23COCCC/C=C/CCCCCCCCC(=O)N[C@@H](CCOc4ccccc4)C(=O)NCC(=O)N1[C@H]2C3 | 38.8
